Here are results for eight molecules from patent US8236523B2, “Camp reporters and high throughput assays” (The Johns Hopkins University, priority 2004, dated 2012).

“Also recorded” adds a separate entry of the source.

Holding throughout (format): cell-based
The subject of assay [1] is cAMP. Briefly: Dual-emission ratio (FRET) imaging of Epac-based cAMP reporters (ICUE1 and targeted fusions) in HEK-293 cells. As to conditions: for increase in the ratio of cyan to yellow emissions (FRET response): HEK293 cells expressing ICUE1, 10 μM ISO, 50 μM FSK, 10 μM PGE1, 300 μM 8-pCPT-2′-O-Me-cAMP, average ± S.E.M; for increase in emission ratio of cyan to yellow upon cAMP elevations: ECFP/citrine reporters with truncated Epac2, HEK-293 cells. The protocol:
Cell Culture. […] Cells were then transfected with FuGENE-6 transfection reagent (Roche) or calcium phosphate and allowed to grow for 12-24 hours before imaging.
Imaging. Cells were washed twice with Hanks' balanced salt solution buffer after 12- to 24-h incubation at 37° C. culture medium. Cells were maintained in buffer in the dark at room temperature with addition of isoproterenol (Aldrich), forskolin (Calbiochem), Prostaglandin E1 (PGE1) (Sigma), and 8-(4-chloro-phenylthio)-2′-O-methyl adenosine 3′,5′-monophosphate (8-pCPT-2′-O-Me-cAMP) (Axxora Biolog) as indicated. Cells were also treated with P-(4,5-dimethoxy-2-nitrobenzyl) adenosine 3′,5′-monophosphate (DMNB-cAMP) (Molecular Probe).
Cells were imaged on a Zeiss Axiovert 200M microscope with a cooled charge-coupled device camera MicroMAX BFT512 (Roper Scientific) controlled by METAFLUOR 6.2 software (Universal Imaging). Dual-emission ratio imaging used a 420DF20 excitation filter, a 450DRLP dichroic mirror and two emission filters (475DF40 for ECFP, 535DF25 for citrine) alternated by a filter changer Lambda 10-2 (Sutter Instruments). Exposure time was 100-500 ms and images were taken every 8-30 s. Fluorescent images were background-corrected by subtracting autofluorescence intensities of untransfected cells (or background with no cells) from the emission intensities of fluorescent cells expressing reporters. The ratios of cyan to yellow emissions were then calculated at different time points and normalized by dividing all ratios by the emission ratio just prior to stimulation therefore setting the basal emission ratio to 1.

For assay [2], the system named is cAMP. Briefly: 96-well live cell plate reading of HEK293 cells expressing ICUE3. The following applies: for effect on ISO-stimulated response of ICUE3: PRO 10 μM. The protocol: Plate reading used a 420DF20 excitation filter and two emission filters (470DF40 for cyan and 535DF25 for yellow). A baseline was established in three cycles, each consisting of a full plate reading of yellow intensity, followed by a reading of cyan intensity. Cells were then treated with isoproterenol (ISO; Aldrich), forskolin (Calbiochem), H89, propranolol, and 3-isobutyl-1-methylxanthine (IBMX) as indicated. Readings were taken in six or twenty additional cycles. Each cycle lasted 60 to 145 sec. Baseline FRET ratios were calculated as the average ratio of yellow/cyan for each well before the addition of drug. FRET change was calculated as the percent increase of FRET ratio over baseline for each well during a given cycle. The FRET changes of all wells having undergone the same drug treatment were then averaged within each cycle, and that cycle was correlated with time.
Live cell plate reading. HEK293 cells were transfected with cDNA encoding ICUE reporters using calcium phosphate at 40% confluency and allowed to grow for 40 hours. Cells were then trypsinized and plated in a Costar 3603 96-well assay plate (Coming) at a density of 150,000 cells per well. After incubation for another 24 hours, cells were washed once with HBSS and left in 150 μl HBSS at 20-25° C. Fluorescence reading was taken on a FLUOstar OPTIMA fluorescence microplate reader (BMG Labtechnologies Inc.) using a 420DF20 excitation filter and two emission filters (470DF40 for cyan and […] for yellow). A baseline was established in three cycles, each consisting of a full plate reading of yellow intensity, followed by a reading of cyan intensity. Each cycle lasted between 64 and 145 seconds. Readings were taken in additional cycles. FRET change was calculated as the percent increase of emission ratios (cyan-to-yellow) over baseline for each well during a given cycle. To assess the efficacy of the assay, several statistical parameters were calculated, including Z factor, coefficient of variation, and signal-to-noise ratio (Zhang et al., J. Biomol. Screen. 4, 67-73, 1999).

Assay [3] has as its system cAMP. The assay is described as follows: High throughput 96-well plate assay using ICUE2 stable HEK293 cells. The following applies: 1 μM ISO, 100 μM IBMX, 50 μM FSK. The protocol: HEK293 cells which stably express ICUE2 (“ICUE2 stable HEK293 cells”) were grown to confluency in 10 cm dishes in DMEM, 10% FBS, 1% penicillin/streptomycin, and 250 μg/ml G418. HEK-293 cells were transfected with cDNA encoding ICUE2 using calcium phosphate at 40% confluency and allowed to grow for 40 hours. Cells were removed from the dish using 0.05% trypsin, spun down, and replaced with fresh media. ICUE2 stable HEK293 cells were counted on a hemocytometer using trypan blue stain. One hundred fifty thousand (150,000) cells were plated per well on a 96-well clear bottom assay plate in a total of 0.2 ml of media per […] and allowed to double once. Media was removed, cells were washed with Hanks buffered salt solution (HBSS) and then covered with 0.05 ml of HBSS per well. In a separate sterile plate, appropriate drugs were added to each well containing HBSS for a total volume of 0.05 ml. […] A baseline was established in three cycles, each consisting of a full plate reading of yellow intensity, followed by a reading of cyan intensity. Cells were then treated with isoproterenol (ISO; […] Readings were taken in six or twenty additional cycles. […] Baseline FRET ratios were calculated as the average ratio of yellow/cyan for each well before the addition of drug. FRET change was calculated as the percent increase of FRET ratio over baseline for each well during a given cycle. The FRET changes of all wells having undergone the same drug treatment were then averaged within each cycle, and that cycle was correlated with time.

[4] abbreviates: 50 μM FSK, 10 μM PRO, 10 μM H89.
Where [5] appears, read: plasma membrane-targeted ICUE1, 10 μM PGE1.
Where [6] appears, read: ICUE1, 10 μM propranolol added after isoproterenol response reached plateau.

Turning to `CO[C@@H]1[C@@H]2OP(=O)(O)OC[C@H]2O[C@H]1n1c(Sc2ccc(Cl)cc2)nc2c(N)ncnc21` [8-pCPT-2′-O-Me-cAMP, 8-(4-chloro-phenylthio)-2′-O-methyl adenosine 3′,5′-monophosphate], the “increase in the ratio of cyan to yellow emissions (FRET response)” value in the assay with cAMP [1] was 12.8%±0.9. The “time to produce a half-maximal increase in emission ratios (t1/2)” value in the assay with cAMP [1] (ICUE1, 300 μM) was in the range of 10 to 15 min.
With `COc1cc(COP2(=O)OCC3OC(n4cnc5c(N)ncnc54)C(O)C3O2)c([N+](=O)[O-])cc1OC` (stereo not drawn) [DMNB-cAMP, P-(4,5-dimethoxy-2-nitrobenzyl) adenosine 3′,5′-monophosphate], the “increase of emission ratio after UV uncaging” value with cAMP [1] (ICUE1, 100 μM DMNB-cAMP for 3 minutes, UV flash of 5 seconds) is reported as 4.7%±0.7. Also, in the assay on cAMP [1] (ICUE1, 100 μM DMNB-cAMP, UV flash of 5 seconds), the “time of emission ratio increase after UV uncaging” value lay within 15 to 30 s.
Turning to `O=S(=O)(NCCNC/C=C/c1ccc(Br)cc1)c1cccc2cnccc12` [H89], the “effect on FSK-stimulated response of ICUE3” value in the assay with cAMP [2] (setting [4]) was “did not diminish the response of ICUE3; also recorded: appeared to increase the response amplitude”.
For the molecule `CC(C)Cn1c(=O)n(C)c(=O)c2[nH]cnc21` [IBMX, 3-isobutyl-1-methylxanthine], the “effect on ISO-stimulated response of ICUE3” value with cAMP [2] (1 μM ISO, 100 μM IBMX) was “sustained the response and increased its amplitude”. For the same molecule, the “character of ICUE2 response (in words)” value in the assay with cAMP [3] is “increased the amplitude and sustained the responses”.
For the molecule `CCCCC[C@H](O)/C=C/[C@H]1[C@H](O)CC(=O)[C@@H]1CCCCCCC(=O)O` [PGE1, Prostaglandin E1], in the assay with cAMP [1], the “increase in the ratio of cyan to yellow emissions (FRET response)” value is recorded as 13.3%±0.9. The “FRET response in the nucleus” value in the assay on cAMP [1] (NLS-ICUE1, 10 μM PGE1) is recorded as 3.4%±0.4. Further, in the assay with cAMP [1] (setting [5]), the “emission ratio increase at the plasma membrane” value is on record as 12.6%±0.9 and the “time of emission ratio increase at the plasma membrane” value lay within 2 to 3 min.
With `CC(C)NCC(O)COc1cccc2ccccc12` (stereo not drawn) [propranolol], the “Average percent FRET response ± standard deviation, 0 sec.” value in the assay on cAMP [2] (0 sec., HEK293 cells expressing ICUE3, 1 μM ISO, 50 μM FSK, 10 μM PRO, 100 μM IBMX, 10 μM H89) is reported as 7.61% ± 3.19%. Besides, the “effect on ISO-stimulated response of ICUE3” value in the assay on cAMP [2] (1 μM ISO, 100 μM IBMX) was “inhibited”. Also, the “effect on FSK-stimulated response of ICUE3” value in the assay with cAMP [2] (setting [4]) is given as “had no effect”. In addition, the “Average percent FRET response ± standard deviation, 145 sec.” value in the assay on cAMP [2] (145 sec., HEK293 cells expressing ICUE3, 1 μM ISO, 50 μM FSK, 10 μM PRO, 100 μM IBMX, 10 μM H89) is 8.1% ± 1.38%. In the assay on cAMP [2] (290 sec., HEK293 cells expressing ICUE3, 1 μM ISO, 50 μM FSK, 10 μM PRO, 100 μM IBMX, 10 μM H89), the “Average percent FRET response ± standard deviation, 290 sec.” value was 6.54% ± 1.37%. In addition, in the assay with cAMP [2] (435 sec., HEK293 cells expressing ICUE3, 1 μM ISO, 50 μM FSK, 10 μM PRO, 100 μM IBMX, 10 μM H89), the “Average percent FRET response ± standard deviation, 435 sec.” value is given as 3.73% ± 0.911%. For the same molecule, in the assay on cAMP [2] (580 sec., HEK293 cells expressing ICUE3, 1 μM ISO, 50 μM FSK, 10 μM PRO, 100 μM IBMX, 10 μM H89), the “Average percent FRET response ± standard deviation, 580 sec.” value was 2.57% ± 1.33%. In the assay with cAMP [2] (725 sec., HEK293 cells expressing ICUE3, 1 μM ISO, 50 μM FSK, 10 μM PRO, 100 μM IBMX, 10 μM H89), the “Average percent FRET response ± standard deviation, 725 sec.” value was 1.83% ± 1.06%. Moreover, the “effect on isoproterenol-stimulated FRET response” value in the assay on cAMP [1] (ICUE1, HEK293 cells, propranolol present) is on record as “prevented the isoproterenol-stimulated response”. In the assay with cAMP [1] (setting [6]), the “time of full recovery of emission ratio” value lay in the range of 6 to 8 min and the “time of initial decrease in emission ratio of cyan to yellow” value is 2 to 3 min.

B1: P350-A501: ECFP and citrine fused with Epac2 domain, amino acids 350-501 of SEQ ID NO:20 (protein, listed as Mus musculus)
chain: ELLHIKALSHLSTTVKRELAGVLIFESHAKGGTVLFNQGEEGTSWYIILKGSVNVVIYGKGVVCTLHEGDDFGKLALVNDAPRAASIVLREDNCHFLRVDKEDFNRILRDVEANTVRLKEHDQDVLVLEKVPAGNRAANQGNSQPQQKYTVM
modifications: fused between ECFP and citrine
With B1, the “increase in emission ratio of cyan to yellow upon cAMP elevations” value with cAMP [1] was “did not show a cAMP-dependent FRET change”.

B2: T316-A501: ECFP/citrine reporter with Epac2 amino acids 316-501 of SEQ ID NO:20 (protein, listed as Mus musculus)
chain: MLLLSQMGPDAHMRMILRKPPGQRTVDDLEIIYDELLHIKALSHLSTTVKRELAGVLIFESHAKGGTVLFNQGEEGTSWYIILKGSVNVVIYGKGVVCTLHEGDDFGKLALVNDAPRAASIVLREDNCHFLRVDKEDFNRILRDVEANTVRLKEHDQDVLVLEKVPAGNRAANQGNSQPQQKYTVM
modifications: fused between ECFP and citrine
With B2, the “increase in emission ratio of cyan to yellow upon cAMP elevations” value in the assay with cAMP [1] amounted to 5%.
